Reference: US20220175809A1, “TREATMENT AND PREVENTION OF INFECTIONS BY HERPESVIRIDAE WITH DELPHINIDIN-3-GLUCOSIDE” (Evonik Operations GmbH, priority 2019, published 2022)

Assays:
HSV-1 = assay: Anti-viral assay, GFP-encoding HSV-1 infection of BHK cells (infected cells counted); type: cell-based, herpes simplex virus 1; settings: BHK cells treated with anthocyanins, then GFP-encoding HSV-1
Experimental: (§1) BHK cells were incubated with decreasing concentration of the solubilized test compounds for approx. 1 h. All concentrations were analyzed by six independent replicates on a black 96 well plate (PerkinElmer). Cells were infected with GFP-encoding wildtype HSV-1 virus and incubated for two days. Two days after infection, HSV-1-infected cells and GFP expressing cells were directly counted using the PerkinElmer Ensight system with optical cell culture plates. The instrument was controlled by manual counting. Anti-viral assays for HHV8 were performed accordingly. To not only analyze the virus entry and early phase of virus replication of infection but also later phases of viral replication, the test assay was adjusted accordingly. BHK cells were incubated with test compounds and subsequently infected with HSV-1. Two days after infection supernatants were collected, centrifuged to remove detached cells and used to infect BHK cells. After two additional days infected cells were quantified using the Ensight system.
The cells were subsequently infected with GFP-encoding HSV at a multiplicity of infection of 2.5, and infected GFP-expressing cells were counted one day after infection using the PerkinElmer Ensight system. […] Thus, the sugar is not required as potential co-factor for drug uptake.

HHV-8 = assay: Anti-viral assay, GFP-encoding HHV-8 infection (infected cells counted); type: cell-based, Herpes virus 8; settings: materials adjusted to same anthocyanin levels, counted two days after infection
Experimental: as §1
The concentrations of materials were again adjusted to the same levels of anthocyanins. No treatment or only maltodextrin served as controls. The cells were subsequently infected with GFP-encoding HHV-8, and infected GFP-expressing cells were counted two days after infection using the PerkinElmer Ensight system. […] The analysis of berry extract analogue without maltodextrin and the maltodextrin control confirmed again that the sugar moiety is not required as potential co-factor for drug uptake.

Compound: OC[C@H]1OC(Oc2cc3c(O)cc(O)cc3[o+]c2-c2cc(O)c(O)c(O)c2)[C@H](O)C(O)C1O (stereo partly shown) [D3G, Delphinidin-3-glucoside]
- inhibition of HSV-1 (viral infectivity) (HSV-1): decreased viral infectivity like Healthberry® 865
- suppression of HHV-8 viral infectivity (HHV-8): identified as an active ingredient
- suppression of HHV-8 viral infectivity (HHV-8; listed as D3G derived from red grape extract): reduced the number of infected cells significantly
- suppression of HHV-8 viral infectivity (HHV-8; listed as D3G from Healthberry® 865): reduced the number of infected cells significantly
